Reference: patent US8367718B2, “Epigallocatechin gallate trimer and α-glucosidase inhibitor containing epigallocatechin gallate polymer” (Suntory Holdings Limited, priority 2008, dated 2013)
Entries after “also recorded” stand apart in the source; their conditions may differ.

Columns and labels:
α-glucosidase = experiment: Alpha-glucosidase inhibitory activity of EGCG polymers (p-nitrophenyl-α-D-glucopyranoside substrate, A405 nm); type: biochemical; conditions: for α-glucosidase inhibitory activity (in words): qualitative statement; for inhibitory activity relative to the EGCG monomer: α-glucosidase, compared with EGCG monomer
Protocol: A […] sodium phosphate buffer solution was prepared by blending 0.1 M NaH2PO4.2H2O and 0.1M Na2HPO4.12H2O and the pH was adjusted to 7.0. To this, 2 g/L bovine serum albumin (F-V, manufactured by Nacalai Tesque Inc., pH 5.2, purity 96%) and 0.2 g/L NaN3 (manufactured by Nacalai Tesque Inc., special grade reagent) were added. An enzyme solution was prepared by dissolving α-glucosidase (manufactured by Wako Pure Chemical Industries Ltd., derived from yeast, 100 units/mg) in the above buffer solution so as to obtain 0.5 units/mg protein /ml (100 μg/20 ml). A substrate solution was prepared by dissolving p-nitrophenyl-α-D-glucopyranoside (manufactured by Nacalai Tesque Inc., special grade reagent) in the buffer solution so as to obtain 5 mM (7.525 mg/5 ml).
Of the samples used for evaluation, theasinensin (TSN)-A and TSN-D were synthesized in accordance with the paper (Hashimoto, F. Nonaka, G. Nishioka, I. Chem. Pharm. Bull. 36 (5), 1676-1684 (1988)) and oolongtheanin-gallate (hereinafter referred to as “OTNG”) were synthesized in accordance with the method described in the paper of J. Agric. Food Chem. 53, 4593-4598 (2005).
These samples were prepared so as to satisfy 10 mg/ml DMSO and serially diluted 6 times by doubling dilution. Using a 96-well microplate, enzyme solution (45 μL) was added to a sample solution (10 μL) and pre-incubated at 37° C. for 5 minutes. Thereafter, the substrate solution (45 μL) was added and absorbance was measured at A 405 nm. After incubation was performed at 37° C. for 5 minutes, absorbance was measured at A 405 nm. The inhibition rate was calculated as a difference from the absorbance at A405 nm of a control, which contains DMSO alone in place of a sample. Each activity measurement was performed twice.

maltase = conditions: background art, literature values; read-out: maltase inhibitory activity IC50; cited from earlier work

O=C(O[C@@H]1Cc2c(cc(O)c(Cc3c(O)c(Cc4c(O)cc(O)c5c4O[C@H](c4cc(O)c(O)c(O)c4)[C@H](OC(=O)c4cc(O)c(O)c(O)c4)C5)c4c(c3O)C[C@@H](OC(=O)c3cc(O)c(O)c(O)c3)[C@@H](c3cc(O)c(O)c(O)c3)O4)c2O)O[C@@H]1c1cc(O)c(O)c(O)c1)c1cc(O)c(O)c(O)c1 [OHBF-trimer-4, (2R,3R)-8-(((2R,3R)-6-(((2R,3R)-5,7-dihydroxy-3-(3,4,5-trihydroxybenzoyloxy)-2-(3,4,5-trihydroxyphenyl)chroman-6-yl)methyl)-5,7-dihydroxy-3-(3,4,5-trihydroxybenzoyloxy)-2-(3,4,5-trihydroxyphenyl)chroman-8-yl)methyl)-5,7-dihydroxy-2-(3,4,5-trihydroxyphenyl)chroman-3-yl 3,4,5-trihydroxybenzoate]
α-glucosidase inhibitory activity (in words) (α-glucosidase; listed as oolong homobisflavan-trimer-4): particularly strong activities; also recorded: significant inhibitory activity; also recorded: high activity | inhibitory activity relative to the EGCG monomer (α-glucosidase): 10 times

O=C(OC1Cc2c(O)cc(O)c(Cc3c(O)c(Cc4c(O)c(Cc5c(O)cc(O)c6c5OC(c5cc(O)c(O)c(O)c5)C(OC(=O)c5cc(O)c(O)c(O)c5)C6)c(O)c5c4OC(c4cc(O)c(O)c(O)c4)C(OC(=O)c4cc(O)c(O)c(O)c4)C5)c4c(c3O)CC(OC(=O)c3cc(O)c(O)c(O)c3)C(c3cc(O)c(O)c(O)c3)O4)c2OC1c1cc(O)c(O)c(O)c1)c1cc(O)c(O)c(O)c1 [OHBF-tetramer-2, (2R,2′R,3R,3′R)-8,8′-(2R,2′R,3R,3′R)-8,8′-methylenebis(5,7-dihydroxy-3-(3,4,5-trihydroxybenzoyloxy)-2-(3,4,5-trihydroxyphenyl)chroman-8,6-diyl)bis(methylene)bis(5,7-dihydroxy-2-(3,4,5-trihydroxyphenyl)chroman-8,3-diyl) bis(3,4,5-trihydroxybenzoate)]
α-glucosidase inhibitory activity (in words) (α-glucosidase): significant inhibitory activity

3-sophoroside-5-glucoside of peonidin
IC50 (maltase): 200 µM

O=C(O[C@@H]1Cc2c(cc(O)c(Cc3c(O)cc(O)c4c3O[C@H](c3cc(O)c(O)c(O)c3)[C@H](OC(=O)c3cc(O)c(O)c(O)c3)C4)c2O)O[C@@H]1c1cc(O)c(O)c(O)c1)c1cc(O)c(O)c(O)c1 [OHBF-B, oolong homobisflavan-B]
α-glucosidase inhibitory activity (in words) (α-glucosidase): strong α-glucosidase inhibitory activity

O=C(O[C@@H]1Cc2c(cc(O)c(Cc3c(O)c(Cc4c(O)cc(O)c5c4O[C@H](c4cc(O)c(O)c(O)c4)[C@H](OC(=O)c4cc(O)c(O)c(O)c4)C5)c(O)c4c3O[C@H](c3cc(O)c(O)c(O)c3)[C@H](OC(=O)c3cc(O)c(O)c(O)c3)C4)c2O)O[C@@H]1c1cc(O)c(O)c(O)c1)c1cc(O)c(O)c(O)c1 [OHBF-trimer-2, (2R,3R)-8-(((2R,3R)-8-(((2R,3R)-5,7-dihydroxy-3-(3,4,5-trihydroxybenzoyloxy)-2-(3,4,5-trihydroxyphenyl)chroman-6-yl)methyl)-5,7-dihydroxy-3-(3,4,5-trihydroxybenzoyloxy)-2-(3,4,5-trihydroxyphenyl)chroman-6-yl)methyl)-5,7-dihydroxy-2-(3,4,5-trihydroxyphenyl)chroman-3-yl 3,4,5-trihydroxybenzoate]
α-glucosidase inhibitory activity (in words) (α-glucosidase): significant inhibitory activity

O=C(OC1Cc2c(O)cc(O)c(Cc3c(O)c(Cc4c(O)c(Cc5c(O)cc(O)c6c5OC(c5cc(O)c(O)c(O)c5)C(OC(=O)c5cc(O)c(O)c(O)c5)C6)c5c(c4O)CC(OC(=O)c4cc(O)c(O)c(O)c4)C(c4cc(O)c(O)c(O)c4)O5)c4c(c3O)CC(OC(=O)c3cc(O)c(O)c(O)c3)C(c3cc(O)c(O)c(O)c3)O4)c2OC1c1cc(O)c(O)c(O)c1)c1cc(O)c(O)c(O)c1 [OHBF-tetramer-1, (2R,3R)-8-(H2R,3R)-8-(((2R,3R)-8-(((2R,3R)-5,7-dihydroxy-3-(3,4,5-trihydroxybenzoyloxy)-2-(3,4,5-trihydroxyphenyl)chroman-8-yl)methyl)-5,7-dihydroxy-3-(3,4,5-trihydroxybenzoyloxy)-2-(3,4,5-trihydroxyphenyl)chroman-6-yl)methyl)-5,7-dihydroxy-3-(3,4,5-trihydroxybenzoyloxy)-2-(3,4,5-trihydroxyphenyl)chroman-6-yl)methyl)-5,7-dihydroxy-2-(3,4,5-trihydroxyphenyl)chroman-3-yl 3,4,5-trihydroxybenzoate]
α-glucosidase inhibitory activity (in words) (α-glucosidase; listed as Oolong homobisflavan-tetramer-1): particularly strong activities | α-glucosidase inhibitory activity (in words) (α-glucosidase; listed as oolong homobisflavan-tetramer-1): significant inhibitory activity; also recorded: high activity | inhibitory activity relative to the EGCG monomer (α-glucosidase): 10 times

O=C(O[C@@H]1Cc2c(O)cc(O)cc2O[C@@H]1c1cc(O)c(O)c(O)c1-c1c([C@H]2Oc3cc(O)cc(O)c3C[C@H]2OC(=O)c2cc(O)c(O)c(O)c2)cc(O)c(O)c1O)c1cc(O)c(O)c(O)c1 (single isomer, unassigned) [TSN-D, theasinensin-D]
α-glucosidase inhibitory activity (in words) (α-glucosidase): strong α-glucosidase inhibitory activity

O=C(O[C@@H]1Cc2c(O)cc(O)cc2O[C@@H]1c1cc(O)c(O)c(O)c1-c1c([C@H]2Oc3cc(O)cc(O)c3C[C@H]2OC(=O)c2cc(O)c(O)c(O)c2)cc(O)c(O)c1O)c1cc(O)c(O)c(O)c1 (single isomer, unassigned) [TSN-A, theasinensin A]
IC50 (maltase): 142 µM
